Source: the supplement of paper PMC13380429

Legend:
Settings in all cases: 72 h
Caco-2 [1] = experiment: relative viability EC50 (midpoint between 100% and the lowest measured viability); higher = less toxic
HepG2 [2] = experiment: as above
Vero E6 [3] = experiment: as above
U2OS [4] = experiment: as above
Calu-3 [5] = experiment: as above
Caco-2 [6] = experiment: drug sensitivity score (DSS) for viability; higher = more toxic; extreme values may be limits of the assay
HepG2 [7] = experiment: as above
Vero E6 [8] = experiment: as above
U2OS [9] = experiment: as above
Calu-3 [10] = experiment: as above
Caco-2 [11] = experiment: cell viability relative to DMSO; higher = less toxic
HepG2 [12] = experiment: as above
Vero E6 [13] = experiment: as above
U2OS [14] = experiment: as above
Calu-3 [15] = experiment: as above

Compound | relative viability EC50 (Caco-2 [1]) [µM] | relative viability EC50 (HepG2 [2]) [µM] | relative viability EC50 (Vero E6 [3]) [µM] | relative viability EC50 (U2OS [4]) [µM] | relative viability EC50 (Calu-3 [5]) [µM] | drug sensitivity score (Caco-2 [6]) | drug sensitivity score (HepG2 [7]) | drug sensitivity score (Vero E6 [8]) | drug sensitivity score (U2OS [9]) | drug sensitivity score (Calu-3 [10]) | cell viability (Caco-2 [11]; 1 nM) [%] | cell viability (Caco-2 [11]; 10 nM) [%] | cell viability (Caco-2 [11]; 100 nM) [%] | cell viability (Caco-2 [11]; 1000 nM) [%] | cell viability (Caco-2 [11]; 10000 nM) [%] | cell viability (HepG2 [12]; 1 nM) [%] | cell viability (HepG2 [12]; 10 nM) [%] | cell viability (HepG2 [12]; 100 nM) [%] | cell viability (HepG2 [12]; 1000 nM) [%] | cell viability (HepG2 [12]; 10000 nM) [%] | cell viability (Vero E6 [13]; 1 nM) [%] | cell viability (Vero E6 [13]; 10 nM) [%] | cell viability (Vero E6 [13]; 100 nM) [%] | cell viability (Vero E6 [13]; 1000 nM) [%] | cell viability (Vero E6 [13]; 10000 nM) [%] | cell viability (U2OS [14]; 1 nM) [%] | cell viability (U2OS [14]; 10 nM) [%] | cell viability (U2OS [14]; 100 nM) [%] | cell viability (U2OS [14]; 1000 nM) [%] | cell viability (U2OS [14]; 10000 nM) [%] | cell viability (Calu-3 [15]; 1 nM) [%] | cell viability (Calu-3 [15]; 10 nM) [%] | cell viability (Calu-3 [15]; 100 nM) [%] | cell viability (Calu-3 [15]; 1000 nM) [%] | cell viability (Calu-3 [15]; 10000 nM) [%]
C[N+]1(C)CCc2cc3c(cc2[C@H]1[C@@H]1OC(=O)c2c1ccc1c2OCO1)OCO3 [bicuculline-methochloride-(-)] | > 10 | > 10 | > 10 | > 10 | > 10 | 2.5 | 0 | 0 | 0 | 0 | 101 | 118 | 98 | 81.9 | 97.3 | 101 | 98.7 | 93.9 | 92.8 | 108 | 98.6 | 97 | 99.2 | 103 | 100 | 95.1 | 99.9 | 99.2 | 98.9 | 100 | 89 | 104 | 85 | 88 | 110
CC(C)NCC(O)COc1ccc(COCCOC(C)C)cc1 (stereo not given) [bisoprolol] | > 10 | > 10 | > 10 | > 10 | > 10 | 0 | 0 | 0 | 0 | 0 | 91.3 | 95.8 | 103 | 100 | 99.2 | 104 | 98.9 | 91.2 | 103 | 90.6 | 92 | 98.3 | 93.3 | 104 | 107 | 93.6 | 94 | 101 | 95 | 103 | 95.5 | 103 | 108 | 97.8 | 108
COc1cc(OC)c(C(=O)CCCN2CCCC2)c(OC)c1 [buflomedil] | > 10 | > 10 | > 10 | > 10 | > 10 | 0 | 0 | 0 | 0 | 0 | 101 | 103 | 96.2 | 96 | 106 | 90.5 | 97.2 | 97.3 | 94.4 | 99 | 95.7 | 99 | 94.1 | 97.5 | 108 | 104 | 99.3 | 102 | 98.8 | 108 | 87.5 | 86.3 | 90.2 | 88.6 | 101
CCCCNC(=O)[C@@H]1Cc2ccccc2N1C(=O)[C@@H](N)CC [butabindide] | > 10 | > 10 | > 10 | > 10 | > 10 | 0 | 0 | 0 | 0 | 0 | 89.3 | 99.2 | 86.1 | 103 | 108 | 106 | 97.2 | 109 | 108 | 106 | 98.7 | 88.4 | 98.9 | 91.7 | 101 | 95.9 | 98.9 | 95.7 | 106 | 106 | 95.2 | 99.7 | 97.1 | 97.1 | 128
C=C1/C(=C\C=C2/CCC[C@]3(C)[C@@H]([C@H](C)CCCC(C)(C)O)CC[C@@H]23)C[C@@H](O)C[C@@H]1O [calcitriol] | > 10 | > 10 | > 10 | > 10 | > 10 | 0 | 0 | 0 | 0 | 0 | 101 | 104 | 105 | 101 | 92.5 | 116 | 112 | 102 | 92.6 | 96.2 | 106 | 102 | 104 | 98.1 | 97.8 | 100 | 104 | 95.9 | 103 | 92.8 | 100 | 106 | 96.7 | 101 | 96.8
CC1/C=C/C=C/C=C/C=C/C=C/C=C/C=C/C(OC2O[C@H](C)[C@@H](O)[C@H](N)[C@@H]2O)CC(O)C(C(=O)O)C(O)CC(=O)CC(O)CC(O)CC(O)CC(=O)CCCC(=O)CC(=O)OC1C(C)CC(C)C(O)CC(=O)c1ccc(N)cc1 (stereo not given in full) [candicidin] | > 10 | > 10 | > 10 | > 10 | > 10 | 0 | 0 | 0.6 | 0 | 0 | 82 | 90.8 | 87.1 | 92 | 77.1 | 109 | 96.4 | 103 | 103 | 98.6 | 101 | 104 | 96.7 | 104 | 77.2 | 105 | 99.9 | 101 | 101 | 96.8 | 101 | 102 | 102 | 104 | 97.5
CNC(=O)ON(C(C)=O)C(=O)NC [caracemide] | > 10 | > 10 | > 10 | > 10 | > 10 | 0 | 0 | 0 | 0 | 0 | 89.6 | 103 | 95.8 | 97.1 | 99.7 | 107 | 104 | 112 | 93.8 | 108 | 97.2 | 96.9 | 99.6 | 94.7 | 112 | 94.8 | 102 | 99.3 | 103 | 106 | 94 | 102 | 111 | 101 | 98.3
